{"source": "paper PMC8389922", "about": "“First-in-Class Cyclic Temporin L Analogue: Design, Synthesis, and Antimicrobial Assessment” (Journal of Medicinal Chemistry, 2021)", "key": {"circular dichroism": {"test": "circular dichroism", "conditions": "water; pH ns; 25 °C; 50 uM"}, "S. aureus ATCC 25923": {"test_system": "S. aureus ATCC 25923", "type": "cell-based, Staphylococcus aureus", "description": "(§1) The antimicrobial activity of peptides 9–26 was assessed against a range of reference bacterial strains such as S. aureus ATCC 25923, Staphylococcus epidermidis ATCC 12228, Bacillus megaterium Bm11, E. coli ATCC 25922, P. aeruginosa ATCC 27853, and A. baumannii ATCC 19606 by the broth microdilution assay to determine the minimal growth inhibitory concentration (MIC, Table 1).[59] First, we evaluated the effects produced by the lactam bridge between Lys and Glu residues placed at different positions along the peptide sequence of reference 9. […] When the i,i+7 cyclization strategy was applied (20–23), a dramatic decrease of bacterial inhibition activity was observed. Specifically, the peptides 20, 22, and 23 only affected the microbial growth of the Gram-positive B. megaterium Bm11, at 12.5 μM. […] Peptide 25, which differs from 9 by the presence of an olefin bridge rather than lactam one, dramatically lost the activity (MIC > 100 μM) vs both Gram-positive and Gram-negative strains.\n(§2) The determination of MICs was conducted as previously reported.[61] Aliquots of 50 μL of bacterial culture appropriately diluted were added to each well of a 96-well plate to reach a final cell density of 1 × 10^6 CFU/mL and a final peptide concentration ranging from 100 to 0.78 μM (final volume 100 μL)."}, "[1]": {"test_system": "S. epidermidis ATCC 12228", "type": "cell-based, Staphylococcus epidermidis", "description": "as §1, §2"}, "B. megaterium Bm11": {"test_system": "B. megaterium Bm11", "type": "cell-based, Bacillus megaterium", "description": "as §1, §2"}, "E. coli ATCC 25922": {"test_system": "E. coli ATCC 25922", "type": "cell-based, Escherichia coli", "description": "as §1, §2"}, "P. aeruginosa ATCC 27853": {"test_system": "P. aeruginosa ATCC 27853", "type": "cell-based, Pseudomonas aeruginosa", "description": "as §1, §2"}, "A. baumannii ATCC 19606": {"test_system": "A. baumannii ATCC 19606", "type": "cell-based, Acinetobacter baumannii", "description": "as §1, §2"}, "[2]": {"test_system": "S. aureus ATCC 43300, a methicillin-resistant strain (MRSA)", "type": "cell-based, Staphylococcus aureus", "description": "Thus, 12 was further tested against S. aureus ATCC 43300, a methicillin-resistant strain (MRSA), and compared with the linear precursor 9. […] No growth was observed after 24 h. Peptide 9 was bactericidal as well, by killing MRSA within 10 min, but at a higher concentration (25 μM).\nThe bacterial strains used in the antimicrobial assays were the Gram-negative E. coli ATCC 25922, P. aeruginosa ATCC 27853, A. baumannii ATCC 19606, the Gram-positive S. aureus ATCC 25923, S. epidermidis ATCC 12228, and B. megaterium Bm11. Methicillin-resistant S. aureus (MRSA) ATCC 43300 was obtained from Culture Collection Center of School of Basic Medical Sciences of Lanzhou University (China).\nas §2"}, "[3]": {"test_system": "preformed biofilm of A. baumannii ATCC 19606", "conditions": "ATCC 19606, 20 h", "description": "(§3) Biofilm viability was determined as indicated in the Materials and General Procedures section and expressed as a percentage compared to that of untreated samples (100%). Values are the mean of at least three replicates ± SEM. Data are considered to be statistically significant as follows: *p < 0.05; ***p < 0.001; ****p < 0.0001. Biofilm eradication concentration 90, BEC90, was defined as the concentration able to reduce at least 90% of biofilm cells. TEXT PRINTED IN THE PICTURE: 9: S. aureus ATCC 25923: BEC90 = 25 μM; A. baumannii ATCC 19606: BEC90 > 100 μM | 12: S. aureus ATCC 25923: BEC90 = 12.5 μM; A. baumannii ATCC 19606: BEC90 = 25 μM\n(§4) Preformed biofilms of S. aureus ATCC 25923 and A. baumannii ATCC 19606 were obtained as previously reported.[77] Microbial cultures were grown in Luria-Bertani broth (LB) at 37 °C to an optical density (OD) of 0.8 (λ = 590 nm) and then diluted in LB to a cell density of 1 × 10^6 colony-forming units (CFUs)/mL. Aliquots of 100 μL were dispensed into the wells of a 96-well plate, which was incubated for 20 h at 37 °C to allow biofilm formation. The medium containing planktonic cells was then aspirated from the wells and washed twice with 150 μL of phosphate-buffered saline (PBS) to remove any nonadherent cells. […] After treatment, each well was rinsed twice with PBS, as previously described. Then, 150 μL of MTT solution (0.5 mg/mL) were added to each well to evaluate biofilm cell viability. The plates were incubated at 37 °C for 4 h in the dark, and the reaction was stopped by adding sodium dodecyl sulfate (SDS) (at a final concentration of 5% v/v). The absorbance of each well was recorded at 570 nm using a microplate reader (Infinite M200; Tecan, Salzburg, Austria), and the percentage of biofilm cells viability was calculated with respect to the untreated samples (100%)."}, "[4]": {"test_system": "preformed biofilm of S. aureus ATCC 25923", "conditions": "ATCC 25923, 20 h", "description": "as §3, §4"}, "[5]": {"conditions": "90% fresh human serum (male AB plasma), 37 ± 1 °C, peptide 0.2 mM, MeCN precipitation, RP-UHPLC peak area at 220 nm, triplicate", "method": "(§5) Peptides were incubated with 90% fresh human serum at 37 ± 1 °C within 12 h.[69] The percentage of intact peptide was monitored by calculating the peak area of the chromatogram from RP-HPLC analysis.\n(§6) The peptide was incubated in a 1.5 mL eppendorf tube with human serum at a final concentration of 0.2 mM, and the mixture was incubated at 37 ± 1 °C for different periods (0.25, 0.75, 1.5, 2, 3, 4, 6, 7, 8, and 12 h). After the incubation period, an aliquot of reaction solution was taken and added MeCN (double volume respect to the aliquot) for the precipitation of serum proteins present in human serum. The produced cloudy solution was cooled (4 °C) for 15 min and then centrifuged at 13 000 rpm for 10 min to remove the serum protein as pellet. Then, the supernatant was analyzed by RP-UHPLC using a linear elution gradient from 10 to 90% MeCN (0.1% TFA) in water (0.1% TFA) over 20 min. A flow rate of 1 mL/min was employed, and the absorbance of the eluting peaks was detected at 220 nm. The proteolytic stability assay was repeated in triplicate."}, "in vitro": {"test": "in vitro", "conditions": "male, human, 90% fresh human serum", "method": "as §5, §6"}, "FtsZ protein": {"biological_target": "FtsZ protein", "conditions": "E. coli divisome; cited from earlier work", "from_the_text": "Temporins are AMPs and belong to the group of host defense peptides (HDP), originally isolated from the amphibian skin secretions of the […] Rana temporaria.[29] Their sequences are composed of 10–14 amino acids, amidated at the C-terminus. In hydrophobic environments, temporins fold into an amphipathic α-helix that, along with their cationic nature at physiological pH (from +2 to +3), is accountable for their biological behavior."}}, "note": "Square brackets hold non-standard residues; d marks the D form. Peptide text beside a SMILES is read from it."}
{"compound": "CC[C@H](C)[C@H](NC(=O)[C@H](CCCNC(=N)N)NC(=O)CNC(=O)[C@@H](CC(C)C)NC(=O)[C@H](Cc1ccccc1)NC(=O)[C@H](CCCCN)NC(=O)[C@H](CO)NC(=O)[C@H](Cc1ccccc1)NC(=O)[C@H](Cc1c[nH]c2ccccc12)NC(=O)[C@@H]1CCCN1C(=O)[C@@H](NC(=O)[C@@H](N)Cc1ccccc1)C(C)C)C(=O)N[C@@H](CC(C)C)C(N)=O", "note": "[compound 9, [Pro^3,DLeu^9]TL, reference compound] (H-FVPWFSKF[dL]GRIL-NH2)", "values": [{"measurement": "helicity", "setting": "circular dichroism", "result": 3, "unit": "%"}, {"measurement": "MIC S. aureus ATCC 25923", "setting": "S. aureus ATCC 25923", "result": 6.25, "unit": "µM"}, {"measurement": "MIC S. epidermidis ATCC 12228", "setting": "[1]", "result": 6.25, "unit": "µM"}, {"measurement": "MIC B. megaterium Bm11", "setting": "B. megaterium Bm11", "result": 1.56, "unit": "µM"}, {"measurement": "MIC E. coli ATCC 25922", "setting": "E. coli ATCC 25922", "result": 12.5, "unit": "µM"}, {"measurement": "MIC P. aeruginosa ATCC 27853", "setting": "P. aeruginosa ATCC 27853", "result": 50, "unit": "µM"}, {"measurement": "MIC A. baumannii ATCC 19606", "setting": "A. baumannii ATCC 19606", "result": 6.25, "unit": "µM"}, {"measurement": "MIC S. aureus ATCC 43300 (MRSA)", "setting": "[2]", "result": 25, "unit": "µM"}, {"measurement": "Biofilm Eradication Concentration 90 (BEC90) A. baumannii ATCC 19606", "setting": "[3]", "result": "> 100", "unit": "µM"}, {"measurement": "Biofilm Eradication Concentration 90 (BEC90) S. aureus ATCC 25923", "setting": "[4]", "result": 25, "unit": "µM"}, {"measurement": "time to complete degradation in human serum", "setting": "[5]", "result": "≤ 6", "unit": "h"}, {"measurement": "metabolised at 0.75 h, 0.2 mM", "setting": "in vitro", "result": "~40", "unit": "%"}]}
{"compound": "FVQWFSKFLGRIL [compound 7, Temporin L]", "values": [{"measurement": "Kd", "setting": "FtsZ protein", "result": "0.0174 ± 0.0008", "unit": "µM"}]}
